Values of other authors as cited in patent US20120156286A1, “COMPOSITIONS AND METHODS FOR INCREASED DELIVERY OF COENZYME Q10” (IMAGENETIX, INC., priority 2010, published 2012).

Settings: in vivo

Intestinal absorption: less than 10%
SMILES: COC1=C(OC)C(=O)C(C/C=C(\C)CC/C=C(\C)CC/C=C(\C)CC/C=C(\C)CC/C=C(\C)CC/C=C(\C)CC/C=C(\C)CC/C=C(\C)CC/C=C(\C)CCC=C(C)C)=C(C)C1=O [CoQ10, Coenzyme Q10]
